# Test results reported in patent US6844190B2, “St-B17 serotonin receptor” (The United States of America as represented by the …, priority 1992, dated 2005).
# Test system: adenylyl cyclase activity in the NCB-20 neuroblastoma cell line
# Experiment: not given
# Details: NCB-20 cells, literature; read-out: EC50, activation of adenylyl cyclase; cited from earlier work
row,Molecule,EC50
1,"NCCc1c[nH]c2ccc(O)cc12 [5-HT, 5-hydroxytryptamine]",300 nM

# Target: T1, St-B17 serotonin receptor (Rattus norvegicus, UniProt P31388, L57V)
# T1 sequence (P31388 with tags, fused parts or gaps L57V): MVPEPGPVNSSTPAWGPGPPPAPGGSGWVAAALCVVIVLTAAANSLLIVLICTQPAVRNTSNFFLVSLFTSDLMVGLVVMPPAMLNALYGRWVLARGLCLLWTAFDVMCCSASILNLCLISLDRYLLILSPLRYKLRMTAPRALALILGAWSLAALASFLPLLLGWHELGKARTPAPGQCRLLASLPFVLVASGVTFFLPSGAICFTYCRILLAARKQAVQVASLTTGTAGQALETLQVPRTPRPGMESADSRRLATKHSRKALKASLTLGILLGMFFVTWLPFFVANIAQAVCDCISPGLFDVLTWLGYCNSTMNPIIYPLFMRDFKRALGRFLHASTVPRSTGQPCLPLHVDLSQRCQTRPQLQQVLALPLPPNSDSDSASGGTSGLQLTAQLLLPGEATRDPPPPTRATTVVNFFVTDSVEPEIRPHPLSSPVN
# Experiment: Saturation analysis of [3H]-5-HT binding in transfected Cos-7 cells
# Design: expressed in transfected cells; host or cells: Cos-7 cells, transient transfection, crude membranes
# Details: [3H]-5-HT saturation binding
# Excerpt: The binding of [^3H]-5-HT was similarly not affected by the addition of guanine nucleotides.
row,Molecule,Bmax
1,NCCc1c[nH]c2ccc(O)cc12 [[^3H]-5-HT],1-3 pMoles/mg protein

# Same assay, conditions: [3H]-5-HT saturation binding, n=3
row,Molecule,Kd
1,NCCc1c[nH]c2ccc(O)cc12 [[^3H]-5-HT],37 nM

# Same assay, conditions: addition of guanine nucleotides
row,Molecule,effect of guanine nucleotides on binding
1,NCCc1c[nH]c2ccc(O)cc12 [[^3H]-5-HT],not affected

# Target: T1, St-B17 serotonin receptor
# Experiment: [3H]-5-HT competition binding, Cos-7 cell membranes expressing St-B17
# Design: expressed in transfected cells; host or cells: Cos-7 cells, transient transfection, crude membranes
# Details: not given
row,Molecule,Ki
1,CN1C[C@H](C(=O)N[C@]2(C)O[C@@]3(O)[C@@H]4CCCN4C(=O)[C@H](Cc4ccccc4)N3C2=O)C[C@@H]2c3cccc4[nH]cc(c34)C[C@H]21 [Dihydroergotamine],5.4 ± 5.4 nM

# Same assay, conditions: 5 nM [3H]-5-HT, Cos-7 membranes, n=3, Cheng-Prussoff from IC50; read-out: Ki vs. [3H]-5-HT, Mean ± SEM
row,Molecule,Ki
1,NCCc1c[nH]c2ccc(C(N)=O)cc12 [5-Carboxamidotryptamine],253 ± 20 nM
2,Cc1nc2sccn2c(=O)c1CCN1CCC(=C(c2ccc(F)cc2)c2ccc(F)cc2)CC1 [Ritanerin],16 ± 2 nM

# Same assay, conditions: read-out: Ki vs. [3H]-5-HT, Mean ± SEM
row,Molecule,Ki
1,CN(C)CCC=C1c2ccccc2CCc2ccccc21 [Amitriptyline],82 ± 6 nM
2,CN1CCN(C2=Nc3ccccc3Oc3ccc(Cl)cc32)CC1 [Loxapine],56 ± 1.5 nM
3,CN1C[C@H](CNC(=O)OCc2ccccc2)C[C@@H]2c3cccc4c3c(cn4C)C[C@H]21 [Metergoline],61 ± 23 nM

# Target: T1, St-B17 serotonin receptor
# Experiment: not given
# Details: KD, representative experiment (FIG. 1, scatchard analysis), single representative experiment
row,Molecule,Kd
1,"CCN(CC)C(=O)[C@@H]1C=C2c3cccc4[nH]c(I)c(c34)C[C@H]2N(C)C1 [[^125I]-LSD, lysergic acid diethylamide]",1.5 nM

# Same assay, conditions: dissociation constant (KD), [125I]-LSD saturation binding, Cos-7 membranes, mean n=3
row,Molecule,Kd
1,"CCN(CC)C(=O)[C@@H]1C=C2c3cccc4[nH]c(I)c(c34)C[C@H]2N(C)C1 [[^125I]-LSD, lysergic acid diethylamide]",1.26 nM

# Same assay, conditions: range over experiments
row,Molecule,maximum binding (Bmax)
1,"CCN(CC)C(=O)[C@@H]1C=C2c3cccc4[nH]c(I)c(c34)C[C@H]2N(C)C1 [[^125I]-LSD, lysergic acid diethylamide]",2-5 pMoles/mg protein

# Same assay, conditions: single representative experiment
row,Molecule,"Bmax, representative experiment (FIG. 1)"
1,"CCN(CC)C(=O)[C@@H]1C=C2c3cccc4[nH]c(I)c(c34)C[C@H]2N(C)C1 [[^125I]-LSD, lysergic acid diethylamide]",3.4 pMoles mg protein^−1

# Target: T2, St-B17 stably expressed in HEK-293 cells (Rattus norvegicus, UniProt P31388, L57V)
# T2 construct: expressed in transfected cells
# T2 sequence (P31388 with tags, fused parts or gaps L57V): as above
# Experiment: cAMP accumulation in intact HEK-293 cells stably expressing St-B17
# Format: cell-based
# Details: not given
# Method: Human Embryonic Kidney cells (HEK 293 available from the ATCC) were stably co-transfected in 150mm dishes by the CaPO4 technique with 30 μg of pSRα-B17 and 3 μg of pMam-neo (INVITROGEN). These HEK 293 cells were then subjected to selection with 600 μg/ml genetecin (G418) (GIBCO). The resistant colonies were collected and screened for receptor expression by [^125I]-LSD binding as described in Example 6.
# Intracellular cAMP levels were determined after a 5 minute incubation of intact cells with various test compounds at 37° C. in the presence of the cAMP phosphodiesterase inhibitor RO-20-1724, using a modification of a previously described cAMP assay (Monsma, F. J., Jr., Barton, A. C., and Sibley, D. R. (1990) J. Neurochemistry 54, 1200-1207) wherein the adrenal cAMP binding protein was replaced with 0.8 mg/ml protein kinase A in water.
row,Molecule,EC50
1,"NCCc1c[nH]c2ccc(O)cc12 [5-HT, 5-hydroxytryptamine]",145 nM

# Same assay, conditions: 10 μM final concentration, FIG. 5
Molecule,effect on cAMP levels on their own (in words),effect on the cAMP response elicited by 5-HT (in words),functional classification at St-B17 receptor
NCCc1c[nH]c2ccc(C(N)=O)cc12 [5-Carboxamidotryptamine],elicit an increase in cAMP levels,,
COc1ccc2[nH]cc(CCN)c2c1 [5-methoxytryptamine],elicit an increase in cAMP levels,,
Clc1ccc2c(c1)C(N1CCNCC1)=Nc1ccccc1O2 [Amoxipine],no significant effect on cAMP levels,substantially inhibit the response elicited by 5-HT,antagonists
CN1C[C@H](C(=O)N[C@]2(C)O[C@@]3(O)[C@@H]4CCCN4C(=O)[C@H](Cc4ccccc4)N3C2=O)C[C@@H]2c3cccc4[nH]cc(c34)C[C@H]21 [Dihydroergotamine],stimulate cAMP accumulation,,partial agonists

# Target: T1, St-B17 serotonin receptor
# Experiment: [125I]-LSD competition binding, Cos-7 cell membranes expressing St-B17
# Design: expressed in transfected cells; host or cells: Cos-7 cells, transient transfection, crude membranes
# Details: Ki vs. [125I]-LSD, Mean ± SEM, 0.5 nM [125I]-LSD, Cos-7 membranes, n=3, Cheng-Prussoff from IC50
# Method: (§1) This experiment was performed on Cos-7 cell membranes expressing the St-B17 serotonin receptor.
row,Molecule,Ki
1,c1ccc2c(N3CCNCC3)cccc2c1 [1(1-naphthyl)piperazine],104 ± 13.8 nM
2,NCCc1c[nH]c2ccc(OCc3ccccc3)cc12 [5-Benzyloxytryptamine],110 ± 17.9 nM
3,COc1ccc2[nH]cc(CCN)c2c1 [5-methoxytryptamine],38.9 ± 3.95 nM
4,CC(C)C[C@H]1C(=O)N2CCC[C@H]2[C@]2(O)O[C@](NC(=O)[C@@H]3C[C@@H]4c5cccc6[nH]cc(c56)C[C@H]4N(C)C3)(C(C)C)C(=O)N12 [Dihydroergocryptine],161 ± 13.2 nM
5,CN1C[C@H](C(=O)N[C@]2(C)O[C@@]3(O)[C@@H]4CCCN4C(=O)[C@H](Cc4ccccc4)N3C2=O)C[C@@H]2c3cccc4[nH]cc(c34)C[C@H]21 [Dihydroergotamine],13.1 ± 0.9 nM
6,"COc1ccc2[nH]cc(CCN(C)C)c2c1 [N,N-Dimethyl-5-methoxytryptamine]",79.8 ± 3.86 nM
7,FC(F)(F)c1cccc(N2CCNCC2)c1 [TFMPP],482 ± 37.2 nM

# Same assay, conditions: addition of GppNHp
row,Molecule,influence of guanine nucleotide analogue GppNHp on affinity
1,"NCCc1c[nH]c2ccc(O)cc12 [5-HT, 5-hydroxytryptamine]",not influenced

# Same assay, conditions: inhibition constant (Ki), screened compounds; radioligand not restated
row,Molecule,Ki
1,COc1ccccc1N1CCN(CCCCN2C(=O)c3ccccc3C2=O)CC1 [NAN-190],> 10000 nM
2,CN(C)CCCC1(c2ccc(F)cc2)OCc2cc(C#N)ccc21 (centres unmarked) [citalopram],> 10000 nM
3,CCNC(C)Cc1cccc(C(F)(F)F)c1 (centres unmarked) [fenfluramine],> 10000 nM
4,Fc1ccc([C@@H]2CCNC[C@H]2COc2ccc3c(c2)OCO3)cc1 [paroxetine],> 10000 nM

# Same assay, conditions: qualitative statement
row,Molecule,affinity for St-B17 (in words)
1,CCCN(CCC)C1CCc2cccc(O)c2C1 (centres unmarked) [8-OH-DPAT],relatively low affinity
2,CN1CCN(c2nc3cc(C(F)(F)F)ccc3n3cccc23)CC1.O=C(O)/C=C\C(=O)O.O=C(O)/C=C\C(=O)O [CGS 12066B],relatively low affinity
3,"CN1[C@@H]2CC[C@H]1C[C@@H](OC(=O)c1c[nH]c3ccccc13)C2 [ICS 205,930]",virtually no affinity
4,CN1[C@@H]2CC[C@H]1C[C@@H](OC(=O)c1cc(Cl)cc(Cl)c1)C2 [MDL 72222],virtually no affinity
5,CCCN1C[C@H](CSC)C[C@@H]2c3cccc4[nH]cc(c34)C[C@H]21 [Pergolide],relatively high affinity
6,"CCN(CC)C(=O)[C@@H]1C=C2c3cccc4[nH]c(I)c(c34)C[C@H]2N(C)C1 [[^125I]-LSD, lysergic acid diethylamide]",relatively high affinity
7,O=C(c1ccc(F)cc1)C1CCN(CCn2c(=O)[nH]c3ccccc3c2=O)CC1 [ketanserin],relatively low affinity

# Same assay, conditions: screened compounds; radioligand not restated; read-out: inhibition constant (Ki)
row,Molecule,Ki
1,COc1cc(N)c(Cl)cc1C(=O)NC1CCN2CCCC1C2 (centres unmarked) [BRL 24924],> 10000 nM
2,CN1C2CCCC1CC(NC(=O)c1nn(C)c3ccccc13)C2 (centres unmarked) [BRL 43694A],> 10000 nM
3,CN1[C@@H]2CC[C@H]1C[C@@H](OC(=O)c1cc(Cl)cc(Cl)c1)C2 [MDL 72222],> 10000 nM
4,NCCc1ccc(O)c(O)c1 [dopamine],> 10000 nM
5,CNC[C@H](O)c1ccc(O)c(O)c1 [epinephrine],> 10000 nM
6,NCCc1c[nH]cn1 [histamine],> 10000 nM
7,c1ccc2c(c1)OCC(C1=NCCN1)O2 (centres unmarked) [idazoxan],> 10000 nM
8,O=C(c1ccc(F)cc1)C1CCN(CCn2c(=O)[nH]c3ccccc3c2=O)CC1 [ketanserin],> 10000 nM
9,COc1ccc2[nH]cc(CCNC(C)=O)c2c1 [melatonin],> 10000 nM
10,NC[C@H](O)c1ccc(O)c(O)c1 [norepinephrine],> 10000 nM
11,NCC(O)c1ccc(O)cc1 (centres unmarked) [octopamine],> 10000 nM
12,CC(C)NCC(O)COc1cccc2[nH]ccc12 (centres unmarked) [pindolol],> 10000 nM
13,O=C(CCCN1CCC2(CC1)C(=O)NCN2c1ccccc1)c1ccc(F)cc1 [spiroperidol],> 10000 nM
14,NCCc1ccc(O)cc1 [tyramine],> 10000 nM
15,COc1cc(N)c(Cl)cc1C(=O)NC1CN2CCC1CC2 (centres unmarked) [zacopride],> 10000 nM
16,CN(C)C/C=C(/c1ccc(Br)cc1)c1cccnc1 [zimelidine],> 10000 nM

# Same assay, conditions: vs. [125I]-LSD
row,Molecule,Hill coefficient for the competition curve
1,"NCCc1c[nH]c2ccc(O)cc12 [5-HT, 5-hydroxytryptamine]",not significantly different from unity

# Target: T3, St-B17 serotonin receptor (Rattus norvegicus, UniProt P31388)
# T3 construct: expressed in transfected cells; host or cells: Cos-7 cells, transient transfection, crude membranes
# T3 sequence (P31388 with tags, fused parts or gaps L57V): as above
# Experiment: as above
# Details: 0.5 nM [125I]-LSD, Cos-7 membranes, n=3, Cheng-Prussoff from IC50; read-out: Ki vs. [125I]-LSD, Mean ± SEM
# Method: as §1
row,Molecule,Ki
1,CCN(CC)C(=O)[C@@H]1C=C2c3cccc4[nH]c(Br)c(c34)C[C@H]2N(C)C1 [2-Br-LSD],17.1 ± 1.11 nM
2,COc1ccccc1N1CCNCC1 [2-MPP],3050 ± 321 nM
3,NCCc1c[nH]c2ccc(C(N)=O)cc12 [5-Carboxamidotryptamine],774 ± 84.4 nM
4,"NCCc1c[nH]c2ccc(O)cc12 [5-HT, 5-hydroxytryptamine]",151 ± 12.8 nM
5,"CNCCc1c[nH]c2ccc(O)cc12 [5-Hydroxy-N,ω-methyltryptamine]",58 ± 8.32 nM
6,CN(C)CCC=C1c2ccccc2CCc2ccccc21 [Amitriptyline],69.6 ± 7.21 nM
7,Clc1ccc2c(c1)C(N1CCNCC1)=Nc1ccccc1O2 [Amoxipine],30.4 ± 1.64 nM
8,CN1CCN(c2nc3cc(C(F)(F)F)ccc3n3cccc23)CC1.O=C(O)/C=C\C(=O)O.O=C(O)/C=C\C(=O)O [CGS 12066B],738 ± 66.6 nM
9,CN1CCN(C2=Nc3ccccc3Oc3ccc(Cl)cc32)CC1 [Loxapine],64.75 ± 0.6 nM
10,CN1C[C@@H](NS(=O)(=O)N(C)C)C[C@@H]2c3cccc4c3c(cn4C)C[C@H]21 [Mesulergine],1720 ± 248 nM
11,CN1C[C@H](CNC(=O)OCc2ccccc2)C[C@@H]2c3cccc4c3c(cn4C)C[C@H]21 [Metergoline],30 ± 0.38 nM
12,CC[C@@H](CO)NC(=O)[C@@H]1C=C2c3cccc4c3c(cn4C)C[C@H]2N(C)C1 [MethyscrGide],372 ± 72.7 nM
13,CNCCC=C1c2ccccc2CCc2ccccc21 [Nortriptyline],147 ± 2.61 nM
14,Nc1ccc(CCN2CCN(c3cccc(C(F)(F)F)c3)CC2)cc1 [PAPP],806 ± 75.2 nM
15,CCCN1C[C@H](CSC)C[C@@H]2c3cccc4[nH]cc(c34)C[C@H]21 [Pergolide],29.9 ± 7.31 nM
16,Cc1nc2sccn2c(=O)c1CCN1CCC(=C(c2ccc(F)cc2)c2ccc(F)cc2)CC1 [Ritanerin],44.1 ± 4.35 nM
17,Clc1cccc(N2CCNCC2)c1 [mCPP],2310 ± 343 nM
18,"N,ω-Methyltryptamine",342 ± 32.2 nM

# Same assay, conditions: read-out: Ki vs. [125I]-LSD, Mean ± SEM
row,Molecule,Ki
1,CN1C[C@H](CC#N)C[C@@H]2c3cccc4[nH]c(Cl)c(c34)C[C@H]21 [Lergotrile],36.5 ± 1.04 nM
